In patent US7419972B2, “2-substituted estra-1,3,5(10)-trien-17-ones as inhibitors of 17β-hydroxy steroid dehydrogenase type 1” (Schering AG, priority 2004, dated 2008):

These molecules were tested against T1, human 17β-hydroxy steroid dehydrogenase type 1 (Homo sapiens, UniProt P14061) (assay: Inhibition of the activity of human 17β-hydroxy steroid dehydrogenase type 1 (3H-labeled substrate conversion, HPLC)). Details: not given.
T1 construct: made in house; host or cells: E. coli (suspension of bacterial pellets, enzyme not purified)
T1 sequence (P14061 1-328): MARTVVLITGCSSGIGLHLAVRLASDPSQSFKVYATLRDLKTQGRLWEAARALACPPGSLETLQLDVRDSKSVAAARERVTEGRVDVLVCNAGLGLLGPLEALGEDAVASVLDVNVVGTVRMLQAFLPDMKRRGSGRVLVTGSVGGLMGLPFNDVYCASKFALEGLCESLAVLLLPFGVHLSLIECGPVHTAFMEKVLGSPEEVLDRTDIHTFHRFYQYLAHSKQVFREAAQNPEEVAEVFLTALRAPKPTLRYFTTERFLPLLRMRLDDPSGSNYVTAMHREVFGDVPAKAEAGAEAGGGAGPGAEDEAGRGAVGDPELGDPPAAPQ
Assay type: biochemical
From the text: The test method is well described in the literature [Adamski, J., Sierralta, W. D., Jungblut, P. W., Acta Endocrinol (Copenh.) 121(2) (1989), 161-7] and is depicted below.
Human 17β-hydroxy steroid dehydrogenases (17β-HSDs) are over-expressed in E. coli bacteria as His-Tag proteins or as GST-fusion proteins. The suspensions of the bacterial pellets in isotonic common salt solution are used for the determination of enzyme activities of the 17β-HSDs or for the study of their influence by potential inhibitors (estrogen derivatives).
The measurements are made in double determination and, if necessary, at various concentrations of potential inhibitors (e.g., in determining the IC50 values). In addition to the target enzyme 17β-HSD1, other steroid-metabolizing enzymes are included in the test to study cross reactivities of estrogen derivatives.
The incubation of the samples is carried out at 37° C. in a water bath while being shaken, such that in the control (without substances to be tested), a conversion of about 30% is achieved.
The separation of radiolabeled substrate and product is then carried out, after extraction with 1 ml of reversed phase-(RP-18)-cartridges, by means of HPLC on an RP18 column with acetonitrile:water 1:1 (v/v) as a mobile phase. The radioactivity is detected with the aid of a flow-scintillation counter.
The evaluation of the substrate conversion with and without substances to be tested is performed by the integration of the substrate and product peaks. The conversion of the control normalized to 100% conversion.

SMILES | IC50 [nM]
C[C@]12CC[C@@H]3c4cc(Cl)c(O)cc4CC[C@H]3[C@@H]1C[C@@H](F)C2=O [Compound 3, 2-Chloro-16α-fluoro-3-hydroxy-estra-1,3,5(10)-trien-17-one] | 101
C[C@]12CC[C@@H]3c4cc(Cl)c(O)cc4CC[C@H]3[C@@H]1C[C@H](F)C2=O [Compound 4, 2-Chloro-16β-fluoro-3-hydroxy-estra-1,3,5(10)-trien-17-one] | 35
C[C@]12CC[C@@H]3c4cc(CCc5ccccc5)c(O)cc4CC[C@H]3[C@@H]1CCC2=O [Compound 21, 3-Hydroxy-2-(2′-phenyl-ethyl)estra-1,3,5(10)-trien-17-one] | 47

Same assay, conditions: enzyme over-expressed in E. coli, bacterial suspension, 37° C.; read-out: 17βHSD1 IC50

SMILES | IC50 [nM]
CC[C@]12CC[C@@H]3c4cc(Cl)c(O)cc4CC[C@H]3[C@@H]1CCC2=O [Compound 1, 2-Chloro-3-hydroxy-18a-homoestra-1,3,5(10)-trien-17-one] | 121
C[C@]12CC[C@@H]3c4cc(Cl)c(O)cc4CC[C@H]3[C@@H]1CCC2=O [Compound 11, 2-Chloro-3-hydroxy-estra-1,3,5(10)-trien-17-one] | 140
C[C@]12CC[C@@H]3c4cc(C#N)c(O)cc4CC[C@H]3[C@@H]1CCC2=O [Compound 12, 2-Cyano-3-hydroxy-estra-1,3,5(10)-trien-17-one] | 148
C[C@]12CC[C@@H]3c4cc(C#Cc5ccccc5)c(O)cc4CC[C@H]3[C@@H]1CCC2=O [Compound 19, 3-Hydroxy-2-phenylethinyl-estra-1,3,5(10)-trien-17-one] | 56
CCc1cc2c(cc1O)CC[C@@H]1[C@@H]2CC[C@]2(C)C(=O)CC[C@@H]12 [Compound 23, 2-Ethyl-3-hydroxy-estra-1,3,5(10)-trien-17-one] | 89
